Experimental data taken from patent publication US4668690A, “1,2,3,4,4a,9b-hexahydro-4a-aminoalkyldibenzofurans useful as analgesics, anticonvulsants or antidepressants” (Hoechst Roussel Pharmaceuticals Inc., priority 1985, dated 1987).
Where a name gives a salt, the structure may show the parent alone. Read-outs that look alike come from different tables or passages of the source.

Experiments:
[1] = system: phenyl-para-quinone induced writhing; assay: phenyl-para-quinone writhing assay in mice (analgesia); format: in vivo; details: for inhibition in vivo at 25 mg/kg: 25 mg/kg subcutaneous; for ED50: read-out: ED50, inhibition of phenyl-para-quinone induced writhing
From the text: The compounds of the invention are primarily useful as analgesic, anticonvulsant and antidepressant agents. […] Exptl. Biol. Med., 95, 729 (1953)]. Listed below in Table I is the analgesic effect of some of the compounds of the invention, expressed as percent inhibition of phenyl-para-quinone induced writhing.

[2] = system: ptosis of tetrabenazine-induced depression; assay: inhibition of tetrabenazine-induced depression (ptosis) in mice (antidepressant); format: in vivo
[3] = system: supra maximal electroshock (extensor tonus); assay: supra maximal electroshock assay (anticonvulsant); format: in vivo, male mice (Charles River, CD-1); details: for ED50: Mus musculus, sc, read-out: ED50, anticonvulsant effect (supra maximal electroshock)
[4] = Mus musculus, sc, subcutaneous, mice, 50% inhibition
[5] = subcutaneous, mice, 50% inhibition

CN(CCCc1ccccc1)CCC[C@@]12CCCC[C@@H]1c1ccccc1O2 (relative stereo) [cis-1,2,3,4,4a,9b-Hexahydro-4a-[3-(N-(3-phenylpropyl)-N-methyl)aminopropyl]dibenzofuran oxalate hydrate]
inhibition in vivo at 25 mg/kg ([1]; Mus musculus, sc, mice): 37%

CCC(=O)O[C@](Cc1ccccc1)(c1ccccc1)[C@H](C)CN(C)C [propoxyphene, reference compound]
inhibition in vivo at 3.9 mg/kg ([1]; Mus musculus, sc, read-out: % Inhibition of phenyl-para-quinone induced writhing): 50%

CN(CCCOc1ccccc1)CC[C@@]12CCCC[C@@H]1c1ccccc1O2 (relative stereo) [Cis-1,2,3,4,4a,9b-hexahydro-4a-[2-{N-methyl-N-(3-phenoxypropyl)}aminoethyl]dibenzofuran oxalate]
inhibition in vivo at 25 mg/kg ([1]; Mus musculus, sc, mice): 65%

c1ccc2c(c1)O[C@]1(CCCN3CCCCC3)CCCC[C@H]21 (relative stereo) [cis-1,2,3,4,4a,9b-hexahydro-4a-(3-piperidinopropyl)dibenzofuran oxalate]
inhibition in vivo at 25 mg/kg ([1]; Mus musculus, sc, mice): 64%

CC(C)=CCN(C)CC[C@@]12CCCC[C@@H]1c1ccccc1O2 (relative stereo) [cis-1,2,3,4,4a,9b-Hexahydro-4a-[2-(N-(3-methyl-2-butenyl)-N-methyl)aminoethyl]dibenzofuran oxalate]
% Inhibition of the ptosis of tetrabenazine-induced depression ([2]; 20.0 mg/kg intraperitoneal): 77%

CN(CCC[C@@]12CCCC[C@@H]1c1ccccc1O2)CCc1ccccc1.Cl (relative stereo) [cis-1,2,3,4,4a,9b-Hexahydro-4a-[3-(N-methyl-N-phenethylamino)propyl]dibenzofuran hydrochloride]
% Inhibition, anticonvulsant effect (supra maximal electroshock) ([3]; 25 mg/kg subcutaneous, mice): 50% | ED50 [1, 4]: 20.8 mg/kg

CNC1=Nc2ccc(Cl)cc2C(c2ccccc2)=[N+]([O-])C1 [Chlorodiazepoxide, reference compound]
% Inhibition, anticonvulsant effect (supra maximal electroshock) ([3]; 8.0 mg/kg subcutaneous, mice, standard): 50%

CN1C(=O)CN=C(c2ccccc2)c2cc(Cl)ccc21 [Diazepam, reference compound]
% Inhibition, anticonvulsant effect (supra maximal electroshock) ([3]; 1.7 mg/kg subcutaneous, mice, standard): 50%

cis-1,2,3,4,4a,9b-Hexahydro-4a-[2-[N-(3-phenylpropyl)-N-methylamino]ethyl]dibenzofuran oxalate hemihydrate
ED50, inhibition of phenyl-para-quinone induced writhing [1, 5]: 7.3 mg/kg

CN(C)CCC=C1c2ccccc2CCc2ccccc21 [Amitriptyline, reference compound]
% Inhibition of the ptosis of tetrabenazine-induced depression ([2]; 2.0 mg/kg intraperitoneal, standard): 50%

CN(C)C[C@@]12CCCC[C@@H]1c1ccccc1O2.Cl (relative stereo) [Cis-1,2,3,4,4a,9b-hexahydro-4a-dimethylaminomethyldibenzofuran hydrochloride]
ED50 [1, 4]: 21.7 mg/kg

CNCCC[C@@]12CCCC[C@@H]1c1ccccc1O2 (relative stereo) [cis-1,2,3,4,4a,9b-Hexahydro-4a-(3-methylaminopropyl)dibenzofuran]
ED50 ([2]; Mus musculus, ip, intraperitoneal, 50% inhibition): 5.9 mg/kg | ED50 [3, 5]: 27.7 mg/kg | inhibition in vivo at 25 mg/kg ([1]; Mus musculus, sc, mice): 58%

CN(C)CCC[C@@]12CCCC[C@@H]1c1ccccc1O2.Cl (relative stereo) [cis-4a-(Dimethylaminopropyl)-1,2,3,4,4a,9b-hexahydrodibenzofuran hydrochloride]
ED50 [3, 5]: 28.1 mg/kg | ED50 [1, 4]: 12.2 mg/kg

CNCC[C@@]12CCCC[C@@H]1c1ccccc1O2.Cl (relative stereo) [cis-1,2,3,4,4a,9b-Hexahydro-4a-(2-methylaminoethyl)dibenzofuran hydrochloride]
% Inhibition of the ptosis of tetrabenazine-induced depression ([2]; 20.0 mg/kg intraperitoneal): 60% | ED50 [3]: 41.7 mg/kg | ED50 ([1]; Mus musculus, sc): 16.2 mg/kg

CN(C)CC[C@@]12CCCC[C@@H]1c1ccccc1O2.Cl (relative stereo) [cis-4a-(2-Dimethylaminoethyl)-1,2,3,4,4a,9b-Hexahydrodibenzofuran hydrochloride]
% Inhibition of the ptosis of tetrabenazine-induced depression ([2]; 20.0 mg/kg intraperitoneal): 70% | ED50 [3, 5]: 22.4 mg/kg | inhibition in vivo at 25 mg/kg ([1]; Mus musculus, sc, mice): 67%

CNC[C@@]12CCCC[C@@H]1c1ccccc1O2.Cl (relative stereo) [cis-1,2,3,4,4a,9b-Hexahydro-4a-methylaminomethyldibenzofuran hydrochloride]
ED50 [3, 5]: 22.5 mg/kg | ED50 [1, 4]: 25.8 mg/kg

CN(CCc1ccccc1)CC[C@@]12CCCC[C@@H]1c1ccccc1O2 (relative stereo) [cis-1,2,3,4,4a,9b-Hexahydro-4a-[2-(N-methyl-N-phenethyl)aminoethyl]dibenzofuran hydrochloride]
inhibition in vivo at 25 mg/kg ([1]; Mus musculus, sc, mice): 63%

CN(CCC[C@@]12CCCC[C@@H]1c1ccccc1O2)Cc1ccco1 (relative stereo) [cis-1,2,3,4,4a,9b-Hexahydro-4a-[3-(N-methyl-N-furfuryl)aminopropyl]dibenzofuran oxalate hydrate]
inhibition in vivo at 25 mg/kg ([1]; Mus musculus, sc, mice): 61%
